# Measurements taken from patent US12595246B2, “Crystalline and amorphous forms of N-(5-((4-ethylpiperazin-1-yl)methyl)pyridine-2-yl)-5-fluoro-4-(3-isopropyl-2-methyl-2H-indazol-5-yl)pyrimidin-2-amine and its salts, and preparation methods and therapeutic uses thereof” (BETA PHARMA, INC., priority 2019, dated 2026).
# Test: Dynamic vapor sorption (DVS) isotherm analysis, with XRPD before and after DVS
# Format: physicochemical
# Conditions: for change of crystalline form after DVS (XRPD): XRPD before and after DVS; for hygroscopicity rating by DVS isotherm analysis: rating in words, based on uptake at 80% RH
Compound,change of crystalline form after DVS (XRPD),hygroscopicity by DVS isotherm analysis (uptake at 80% RH) [%],hygroscopicity rating by DVS isotherm analysis
CCN1CCN(Cc2ccc(Nc3ncc(F)c(-c4cc(F)c5nc(C)n(C(C)C)c5c4)n3)nc2)CC1.Cc1ccc(S(=O)(=O)O)cc1,no change of crystalline form,1.67,slightly hygroscopic
CCN1CCN(Cc2ccc(Nc3ncc(F)c(-c4cc(F)c5nc(C)n(C(C)C)c5c4)n3)nc2)CC1.Cl [1⋅HCl (1:1; Form A)],no change of crystalline form,3.64,hygroscopic
CCN1CCN(Cc2ccc(Nc3ncc(F)c(-c4cc(F)c5nc(C)n(C(C)C)c5c4)n3)nc2)CC1.O=S(=O)(O)O [Compound 1⋅H2SO4 (1:1; Form A)],some change of crystalline form,26.42,very hygroscopic
CCN1CCN(Cc2ccc(Nc3ncc(F)c(-c4cc(F)c5nc(C)n(C(C)C)c5c4)n3)nc2)CC1.O=P(O)(O)O [Compound 1⋅H3PO4 (1:1)],some change of crystalline form,3.16,hygroscopic
CCN1CCN(Cc2ccc(Nc3ncc(F)c(-c4ccc5nn(C)c(C(C)C)c5c4)n3)nc2)CC1 [freebase of 1 (Form D)],no change of crystalline form,5.13,hygroscopic
